Numbers after ± are expanded uncertainties.
Details: Liquid, Ebulliometric method (Recirculating still)

CCCCO [butan-1-ol]
Details | vapor or sublimation pressure [kPa]
390.49 K | 101.3 ± 1.5

CCO [ethanol]
Details | vapor or sublimation pressure [kPa]
351.14 K | 101.3 ± 1.5

CCCCCCCCCC [decane]
Details | vapor or sublimation pressure [kPa]
413.88 K | 40 ± 0.88

CCCCCC(C)=O [2-heptanone]
Details | vapor or sublimation pressure [kPa]
354.77 K | 9.87 ± 0.73
358.59 K | 11.52 ± 0.73
365.38 K | 15.05 ± 0.73
367.88 K | 16.52 ± 0.74
368.9 K | 17.34 ± 0.75
373.79 K | 20.76 ± 0.74
373.84 K | 20.76 ± 0.74
379.25 K | 25.32 ± 0.75
379.3 K | 25.32 ± 0.75
383.78 K | 29.69 ± 0.76
383.83 K | 29.69 ± 0.76
388.51 K | 34.81 ± 0.77
392.54 K | 40 ± 0.88
393.11 K | 40.52 ± 0.79
398.45 K | 48.09 ± 0.81
403.15 K | 55.74 ± 0.83
405.81 K | 60.35 ± 0.84
409.67 K | 67.5 ± 0.86
413.3 K | 75.05 ± 0.9
416.77 K | 83.2 ± 0.92
420.2 K | 91.5 ± 0.93

CCCCC(=O)CC [3-heptanone]
Details | vapor or sublimation pressure [kPa]
354.82 K | 11.05 ± 0.73
358.58 K | 12.93 ± 0.73
363.03 K | 15.51 ± 0.74
367.95 K | 18.75 ± 0.74
373.6 K | 23.27 ± 0.75
377.99 K | 27.11 ± 0.76
383.09 K | 32.58 ± 0.77
388.11 K | 40 ± 0.9
388.36 K | 40 ± 0.9
388.62 K | 39.13 ± 0.78
388.67 K | 40 ± 0.9
393.02 K | 45.12 ± 0.81
398.84 K | 54.02 ± 0.83
404.44 K | 64.03 ± 0.86
409.63 K | 74.5 ± 0.89
412.95 K | 82 ± 0.93
416.5 K | 90.5 ± 0.94

CCCCCCCC [octane]
Details | vapor or sublimation pressure [kPa]
367.97 K | 40 ± 0.88
368.3 K | 40 ± 0.88
368.32 K | 40 ± 0.88

CCCCCCCCC [nonane]
Details | vapor or sublimation pressure [kPa]
391.78 K | 40 ± 0.88
391.87 K | 40 ± 0.88
391.9 K | 40 ± 0.88

CCCC(=O)CCC [4-heptanone]
Details | vapor or sublimation pressure [kPa]
358.74 K | 14.54 ± 0.74
363.42 K | 17.72 ± 0.74
370.01 K | 22.69 ± 0.75
377.77 K | 29.93 ± 0.76
383.7 K | 36.63 ± 0.78
385.47 K | 40 ± 0.9
385.5 K | 40 ± 0.9
385.87 K | 40 ± 0.9
388.63 K | 43.17 ± 0.8
393.78 K | 50.95 ± 0.83
398.38 K | 59.15 ± 0.85
403.74 K | 69.39 ± 0.88
407.98 K | 78.55 ± 0.91
411.2 K | 86.2 ± 0.94
413.43 K | 91.55 ± 0.94
